{
  "source": "patent US10278971B2",
  "about": "“Fluorocyclopentenylcytosine methods of use” (Rexahn Pharmaceuticals, Inc., priority 2015, dated 2019)",
  "key": {"[1]": {"system": "advanced malignant tumors", "assay": "Efficacy in subjects with advanced malignant tumors", "assay_type": "in vivo, human", "conditions": "48 subjects enrolled", "method": "The efficacy, safety and tolerability of RX-3117 at various doses and frequencies were evaluated (see Example 4, above). Subjects with advanced malignant tumors were administered capsules containing RX-3117 at various doses, from TIWK to 7 times per week for 3 weeks with 1 week off during each 4-week cycle. Dose escalation begins with an accelerated design treating 1 subject per dose (Simon et al., J. Natl. Cancer Inst., 89(15):1138-47 (1997) followed by a standard 3+3 design using a modified Fibonacci sequence after the occurrence of a single related Grade 2 or greater adverse event. Table 4 (above) summarizes the dosing schedule."}, "A2780": {"system": "A2780", "assay": "Clonogenic assay, radiosensitizing effect", "assay_type": "cell-based, human", "method": "(§1) Exponential growing A2780, SW1573, A549, H460 and SW1573/G-cells were exposed to 1 μM RX-3117 or untreated (control) for 24 h and irradiated with single doses γ-radiation (0-6 Gy) using a ^60Co source (Gammacell 200, Atomic Energy of Canada, Ltd). Subsequently, 500 cells/T25 flasks were plated and allowed to form colonies. After ten days colonies were fixed with 100% ethanol and stained with 10% Giemsa stain solution (Merck Chemicals BV, Amsterdam, the Netherlands) for colonies counting. Plating efficiency (PE) was calculated by dividing the number of colonies formed through the number of cells plated and normalized for cytotoxicity induced by control. To illustrate the effect of RX-3117 on radiation, dose modifying factor (DMF) was calculated as described earlier (Bijnsdorp I V, van den Berg J, Kuipers G K, Wedekind L E, Slotman B J, van Rijn J, Lafleur M V M and Sminia P: Radiosensitizing potential of the selective cyclooygenase-2 (COX-2) inhibitor meloxicam on human glioma cells. J Neurooncol 85: 25-31, 2007)."}, "A549 [2]": {"system": "A549", "assay": "Clonogenic assay, radiosensitizing effect", "assay_type": "cell-based, human", "conditions": "A549, 1 μM pre-incubation 24 h, irradiation 0-6 Gy", "method": "as §1"}, "H460": {"system": "H460", "assay": "Clonogenic assay, radiosensitizing effect", "assay_type": "cell-based, human", "conditions": "H460, 1 μM pre-incubation 24 h, irradiation", "method": "as §1"}, "SW1573/G-": {"system": "SW1573/G-", "assay": "Clonogenic assay, radiosensitizing effect", "assay_type": "cell-based, human", "conditions": "1 μM pre-incubation 24 h, irradiation", "method": "as §1"}, "SW1573": {"system": "SW1573", "assay": "Clonogenic assay, radiosensitizing effect", "assay_type": "cell-based, human", "method": "as §1"}, "A549 [3]": {"system": "A549", "assay": "Mice xenograft model, tumor growth inhibition", "assay_type": "in vivo", "conditions": "oral 500 mg/kg, TIWK", "from_the_text": "(§2) A novel, orally bioavailable nucleoside analogue, RX-3117, is a prodrug activated intracellularly by Uridine Cytidine Kinase 2 (UCK2) that is thought to be expressed predominantly in tumor tissue. RX-3117 is currently being evaluated in a Phase Ib/IIa multi-center, open-label clinical study in patients with advanced pancreatic and bladder cancer. In this study, the relation between UCK2 tissue protein expression and the efficacy of RX-3117 in mice xenograft models and also UCK2 protein expression in a panel of human cancer tissues relative to normal tissue were studied.\n(§3) The immunoblotting protein level of UCK2 normalized to beta-actin and corresponding tumor growth inhibition (oral RX-3117 dose of 500 mg/kg, TIWK) were 57 and 67% in MiaPaCa2, 30 and −5% in BxPC3, 199 and 92% in Colo-205, 21 and 90% in Caki-1, 2 and 39% in A549, and 146 and 79% in H460, respectively. […] Average H-Scores of UCK2 in cancer tissues vs. normal tissues were 104 vs. 9 in lung, 97 vs. 20 in bladder, 67 vs. 41 in pancreas and 39 vs. 21 in colon, respectively."}, "BxPC3": {"system": "BxPC3", "assay": "Mice xenograft model, tumor growth inhibition", "assay_type": "in vivo", "conditions": "oral 500 mg/kg, TIWK", "from_the_text": "as §2, §3"}, "Colo-205": {"system": "Colo-205", "assay": "Mice xenograft model, tumor growth inhibition", "assay_type": "in vivo", "conditions": "Colo-205 xenograft, oral 500 mg/kg, TIWK", "from_the_text": "as §2, §3"}},
  "data": [
    {"compound": "Nc1ccn([C@@H]2C(F)=C(CO)[C@@H](O)[C@H]2O)c(=O)n1", "note": "[RX-3117, 4-amino-1-((1S,4R,5S)-2-fluoro-4,5-dihydroxy-3-hydroxymethyl-cyclopent-2-enyl)-1H-pyrimidin-2-one]", "values": [
      {"measurement": "subjects with stable disease for 1 to 10 cycles", "setting": "[1]; various oral doses and frequencies", "value": "Seventeen"},
      {"measurement": "subjects with tumor burden reduction", "setting": "[1]; pancreatic, breast and mesothelioma cancers", "value": 3, "unit": "subjects"},
      {"measurement": "dose modifying factor (DMF)", "setting": "A2780; A2780, 1 μM pre-incubation 24 h, irradiation 0-6 Gy", "value": 1.8},
      {"measurement": "plating efficiency compared to control", "setting": "A2780; A2780, pre-incubation 1 μM 24 h, 4 Gy", "value": "five times lower"},
      {"measurement": "dose modifying factor (DMF)", "setting": "A549 [2]", "value": 1.8},
      {"measurement": "radiosensitizing effect", "setting": "H460", "value": "poor radiosensitizing effect"},
      {"measurement": "dose modifying factor (DMF)", "setting": "SW1573/G-", "value": 1.4},
      {"measurement": "colonies outgrowth, fractionated radio therapy", "setting": "SW1573; SW1573, 1 μM prior to 5 times 2 Gy", "value": "lowest colonies outgrowth"},
      {"measurement": "dose modifying factor (DMF)", "setting": "SW1573; SW1573, 5 μM (FIG. 16 legend) pre-incubation 24 h, irradiation", "value": 1.5},
      {"measurement": "tumor growth inhibition", "setting": "A549 [3]", "value": 39, "unit": "%"},
      {"measurement": "tumor growth inhibition", "setting": "BxPC3", "value": "−5", "unit": "%"},
      {"measurement": "tumor growth inhibition", "setting": "Colo-205", "value": 92, "unit": "%"}
    ]}
  ]
}
